Calls of active or inactive are those of the source. The calls are words filed in the database; no cut-off is given here.
Experiments:
[1] = AUC (0 to t) in BALB/c mouse at 10 mg/kg, po; type: ADME, organism-based; conditions: in vivo, po, 10 mg/kg
[2] = AUC (0 to t) in BALB/c mouse at 5 mg/kg, iv; type: ADME, organism-based; conditions: in vivo
[3] = Tmax in BALB/c mouse at 5 mg/kg, iv; type: ADME, organism-based; conditions: in vivo
[4] = Cmax in BALB/c mouse at 10 mg/kg, po; type: ADME, organism-based; conditions: in vivo
[5] = Apparent volume of distribution in BALB/c mouse at 10 mg/kg, po; type: ADME, organism-based; conditions: in vivo
[6] = target: T1, Receptor-interacting serine/threonine-protein kinase 1 (Homo sapiens, UniProt Q13546); test: Inhibition of RIPK1 (unknown origin) in presence of ATP by kinaseProfiler assay
T1 sequence (Q13546 whole entry): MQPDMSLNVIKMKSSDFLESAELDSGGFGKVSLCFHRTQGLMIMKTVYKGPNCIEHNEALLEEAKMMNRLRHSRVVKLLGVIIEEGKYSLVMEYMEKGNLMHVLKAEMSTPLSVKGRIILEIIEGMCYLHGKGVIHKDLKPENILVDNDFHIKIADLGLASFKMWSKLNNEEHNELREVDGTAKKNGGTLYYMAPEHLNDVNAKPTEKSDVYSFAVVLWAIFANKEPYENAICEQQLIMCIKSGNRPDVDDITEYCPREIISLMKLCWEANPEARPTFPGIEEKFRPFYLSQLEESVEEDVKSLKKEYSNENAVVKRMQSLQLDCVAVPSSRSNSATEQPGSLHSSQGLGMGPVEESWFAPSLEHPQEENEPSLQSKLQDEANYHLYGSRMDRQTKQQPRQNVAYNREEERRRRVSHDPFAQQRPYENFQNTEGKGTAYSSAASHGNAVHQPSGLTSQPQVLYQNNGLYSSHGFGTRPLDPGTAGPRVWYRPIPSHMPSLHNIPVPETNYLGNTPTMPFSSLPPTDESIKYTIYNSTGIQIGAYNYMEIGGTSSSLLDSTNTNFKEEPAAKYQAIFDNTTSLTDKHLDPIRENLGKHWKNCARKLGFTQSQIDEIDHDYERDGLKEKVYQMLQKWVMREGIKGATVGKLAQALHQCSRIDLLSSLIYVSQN

[7] = Cmax in BALB/c mouse at 5 mg/kg, iv; type: ADME, organism-based; conditions: in vivo
[8] = Metabolic stability in cryopreserved human liver microsome assessed as half life; type: ADME; conditions: cryopreserved liver microsomes
L929 = test: Anti-necroptosis activity against TSZ-induced mouse L929 cells; type: functional, cell-based
[9] = Half life in BALB/c mouse at 10 mg/kg, po; type: ADME, organism-based; conditions: in vivo
[10] = Half life in BALB/c mouse at 5 mg/kg, iv; type: ADME, organism-based; conditions: in vivo
U-937 = test: Anti-necroptosis activity against TSZ-induced human U-937 cells; type: functional, cell-based
HT-29 = test: Anti-necroptosis activity against TSZ-induced human HT-29 cells; type: functional, cell-based
[11] = Oral bioavailability in BALB/c mouse at 10 mg/kg; type: ADME, organism-based; conditions: in vivo; for bioavailability: BALB/c
[12] = Tmax in BALB/c mouse at 10 mg/kg, po; type: ADME, organism-based; conditions: in vivo
Mus musculus = test: In vivo anti-necrotptic activity in SIRS mouse model assessed as protection from body temperature loss at 10 mg/kg, po measured upto 6 hrs; type: functional, organism-based
[13] = Tmax in BALB/c mouse at 10 mg/kg, iv; type: ADME, organism-based; conditions: in vivo
[14] = Clearance in BALB/c mouse at 10 mg/kg, po; type: ADME, organism-based; conditions: in vivo, po, 10 mg/kg
[15] = Clearance in BALB/c mouse at 10 mg/kg, iv; type: ADME, organism-based; conditions: in vivo
[16] = Cmax in BALB/c mouse at 10 mg/kg, iv; type: ADME, organism-based; conditions: in vivo
[17] = Half life in BALB/c mouse at 10 mg/kg, iv; type: ADME, organism-based; conditions: in vivo
[18] = Apparent volume of distribution in BALB/c mouse at 10 mg/kg, iv; type: ADME, organism-based; conditions: in vivo, read-out: Vz
[19] = AUC (0 to t) in BALB/c mouse at 10 mg/kg, iv; type: ADME, organism-based; conditions: in vivo, iv, 10 mg/kg

IC50 [6] | half-life [8] | SMILES | EC50 (L929) | EC50 (U-937) | EC50 (HT-29) | further results
110 nM | 48.8 min | Nc1n[nH]c(=O)c2c1c(-c1ccc3c(c1)CCN3C(=O)Cc1cccc(OC(F)(F)F)c1)nn2CC1CC1 | 0.48 nM | 3.89 nM | 2.61 nM | AUCt [1]: 6121.97 ng·h/mL; AUC(0-t) [2]: 6930 ng·h/mL; Tmax [3]: 8.4 min; Cmax [4]: 1090 ng/mL; Vz [5]: 6007.49 L/kg; Cmax [7]: 3290 ng/mL; half-life ([9]; BALB/c): 155 min; half-life [10]: 702 min; bioavailability [11]: 44.1%; Tmax [12]: 60 min
42.7 nM | > 120 min | CCn1nc(-c2ccc3c(c2)CCN3C(=O)Cc2cccc(OC(F)(F)F)c2)c2c(N)n[nH]c(=O)c21 | 9.79 nM | 4.45 nM | 16.1 nM | bioavailability [11]: 4.36%
79.8 nM | 13.2 min | CC1(Cn2nc(-c3ccc4c(c3)CCN4C(=O)Cc3cccc(OC(F)(F)F)c3)c3c(N)n[nH]c(=O)c32)COC1 | 1.85 nM | 3.9 nM | 5.57 nM | 
66.1 nM | 26.8 min | CC(C)n1nc(-c2ccc3c(c2)CCN3C(=O)Cc2cccc(OC(F)(F)F)c2)c2c(N)n[nH]c(=O)c21 | 1.47 nM | 17.3 nM | 7.73 nM | 
 |  | CN1C(=O)[C@@H](NC(=O)c2n[nH]c(Cc3ccccc3)n2)COc2ccccc21 [GSK2982772] | 1260 nM | 1.27 nM | 2.78 nM | Activity (Mus musculus): Active
120 nM | 21.1 min | CCCn1nc(-c2ccc3c(c2)CCN3C(=O)Cc2cccc(OC(F)(F)F)c2)c2c(N)n[nH]c(=O)c21 | 1.42 nM | 0.46 nM | 6.84 nM | 
48.7 nM | 85.6 min | CC1(Cn2cc(-c3ccc4c(c3)CCN4C(=O)Cc3cccc(C(F)(F)F)c3)c3c(N)n[nH]c(=O)c32)COC1 | 1.58 nM | 22 nM | 33 nM | 
149 nM | 28.2 min | Nc1n[nH]c(=O)c2c1c(-c1ccc3c(c1)CCN3C(=O)Cc1cccc(OC(F)(F)F)c1)nn2Cc1ccccc1 | 14.3 nM | 117 nM | 108 nM | 
133 nM | 18.1 min | CC(C)Cn1nc(-c2ccc3c(c2)CCN3C(=O)Cc2cccc(OC(F)(F)F)c2)c2c(N)n[nH]c(=O)c21 | 1.36 nM | 9.75 nM | 6.19 nM | 
125 nM | 119 min | Nc1n[nH]c(=O)c2c1c(-c1ccc3c(c1)CCN3C(=O)Cc1cccc(C(F)(F)F)c1)cn2CC1CC1 | 1.17 nM | 1.88 nM | 6.01 nM | AUCt [1]: 2048.56 ng·h/mL; Tmax [13]: 120 min; CL [14]: 48.7 mL/min/kg; clearance [15]: 48.7 mL/min/kg; Cmax [16]: 45.5 ng/mL; half-life [17]: 1260 min; Cmax [4]: 45.5 ng/mL; Vz [5]: 2.8 L/kg; Vd [18]: 91 L/kg; AUCt [19]: 2048.56 ng·h/mL; t1/2 ([9]; po, 10 mg/kg): 1259 min; F ([11]; po, 10 mg/kg): 22.49%; Tmax [12]: 8.4 min

From ChEMBL document CHEMBL5518188, “Discovery of 4-amino-1,6-dihydro-7H-pyrrolo[2,3-d]pyridazin-7-one derivatives as potential receptor-interacting serine/threonine-protein kinase 1 (RIPK1) inhibitors” (Eur J Med Chem, 2024)
